Patent publication US20260242352A1, “INHIBITION OF SHIP1 AS A THERAPEUTIC STRATEGY FOR THE TREATMENT OF ALZHEIMER'S DISEASE” (The Trustees of Indiana University, priority 2022, published 2026)

Legend:
[1] = target: T1, HiBit-labeled full length SHIP1 protein (Homo sapiens, UniProt Q92835); assay: Cellular thermal shift assay (SplitLuc CETSA), compound dose response; type: cell-based; settings: HMC3/HiBit-INPP5D cells, 60 min; for CETSA Min Inhibition (%): heated at 44.2° C.; for AC50: heated at 44.2° C. for 3 min, 8-point curve from 80 uM or 100 uM
T1 construct: thermal stability of a HiBit-labeled full length SHIP1 protein in intact cells; expressed in transfected cells; host or cells: HMC3 (stably transfected)
T1 sequence (Q92835 1-1189): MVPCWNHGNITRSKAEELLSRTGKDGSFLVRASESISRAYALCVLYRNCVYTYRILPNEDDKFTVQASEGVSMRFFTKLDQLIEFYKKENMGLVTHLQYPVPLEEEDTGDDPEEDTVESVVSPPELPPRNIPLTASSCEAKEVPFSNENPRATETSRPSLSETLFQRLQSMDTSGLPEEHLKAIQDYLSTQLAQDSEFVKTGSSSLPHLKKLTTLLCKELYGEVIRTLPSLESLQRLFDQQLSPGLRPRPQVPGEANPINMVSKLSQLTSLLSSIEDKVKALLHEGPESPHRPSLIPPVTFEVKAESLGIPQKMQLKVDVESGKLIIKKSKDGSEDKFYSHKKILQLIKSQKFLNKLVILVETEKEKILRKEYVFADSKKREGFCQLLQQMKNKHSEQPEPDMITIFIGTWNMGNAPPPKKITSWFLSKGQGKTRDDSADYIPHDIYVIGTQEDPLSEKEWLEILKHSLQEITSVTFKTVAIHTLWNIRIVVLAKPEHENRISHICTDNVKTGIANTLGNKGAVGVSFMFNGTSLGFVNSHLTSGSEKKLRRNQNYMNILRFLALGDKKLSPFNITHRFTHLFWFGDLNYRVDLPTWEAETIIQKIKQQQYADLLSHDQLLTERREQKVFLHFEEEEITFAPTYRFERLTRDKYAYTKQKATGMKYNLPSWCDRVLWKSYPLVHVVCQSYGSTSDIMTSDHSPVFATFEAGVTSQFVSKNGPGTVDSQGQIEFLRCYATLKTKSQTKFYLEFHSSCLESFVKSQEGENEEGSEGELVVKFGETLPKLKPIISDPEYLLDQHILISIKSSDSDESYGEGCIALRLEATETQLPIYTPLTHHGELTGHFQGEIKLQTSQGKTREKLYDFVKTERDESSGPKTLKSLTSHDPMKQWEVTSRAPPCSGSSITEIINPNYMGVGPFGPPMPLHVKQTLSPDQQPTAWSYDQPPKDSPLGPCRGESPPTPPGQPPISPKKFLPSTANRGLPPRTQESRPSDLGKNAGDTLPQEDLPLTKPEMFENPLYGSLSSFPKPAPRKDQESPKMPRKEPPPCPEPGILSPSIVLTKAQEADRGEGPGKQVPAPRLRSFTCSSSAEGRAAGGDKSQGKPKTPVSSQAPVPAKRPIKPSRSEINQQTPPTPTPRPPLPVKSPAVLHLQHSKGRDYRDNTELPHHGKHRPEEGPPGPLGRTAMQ
Protocol: (§1) Cellular thermal shift assay (CETSA). […] This assay was run in the following two formats with HMC3/HiBit-INPP5D stably transfected cells.
2. Compound dose response: run at target Tm (44.2° C. for SHIP1) with compound dosing from 80 uM or 100 uM with 1:3 serial dilutions to generate an 8 point curve. Cells were treated for 60 min before being heated at target Tm for 3 min before luminescence detection. An AC50 was calculated using a four-parameter logistic curve regression model with change at highest concentration noted when difference from control >3SD, otherwise AC50 marked as “nc” for not calculated.
(§2) See Martinez et al. (2018) Sci Rep 8: p. 9472; Oh-Hashi et al. (2017) Biochem Biophys Rep 12: pp. 40-45. This assay was run in the following two formats with HMC3/HiBit-INPP5D stably transfected cells.
Compound dose response: run at target Tm (44.2° C. for SHIP1) with compound dosing from 80 uM or 100 uM with 1:3 serial dilutions to generate an 8-point curve. Cells were treated for 60 min before being heated at target Tm for 3 min before luminescence detection. The concentration that induced a half-maximum response (AC50) was calculated using a four-parameter logistic curve regression model with change at highest concentration noted when difference from control >3SD.

[2] = target: T1, HiBit-labeled full length SHIP1 protein; assay: Cellular thermal shift assay (SplitLuc CETSA), thermal shift format; type: cell-based; design: key: Y = ΔTm difference of 40 μM compound treated cells from control is Tm > 3SD; N: otherwise negative; settings: 40 μM compound for 60 min, HMC3/HiBit-INPP5D cells, 38-52° C. gradient; target engagement positive/negative
Protocol: as §1
1. Thermal shift: cells were treated with 40 μM compound for 60 min, then heated with a temperature gradient covering 38-52° C. for 3 min before luminescence detection. Mean and standard deviation of control Tm were determined to generate a “Mean+3SD” ΔTm, which was used as threshold to determine a significant ΔTm of compound from control. When the difference of ΔTm of compound treated cells from control Tm>3SD, the compound was considered positive for target engagement, otherwise negative. SD=average standard deviation.
as §2
Thermal shift: cells were treated with 40 μM compound for 60 min, then heated with a temperature gradient covering 38-52° C. for 3 min before luminescence detection. Mean and standard deviation of control Tm were determined to generate a “Mean+3SD” ΔTm, which was used as threshold to determine a significant ΔTm of compound from control. When the difference of ΔTm of compound treated cells from control Tm>3SD, the compound was considered positive for target engagement, otherwise negative. SD=average standard deviation.

Row | Compound | CETSA Min Inhibition (%) [1] | CETSA SP [2] | AC50 [1]
1 | CC(C)(C)OC(=O)N1CCC(n2cc(-c3cncc(OCc4ccccc4Cl)c3)cn2)CC1 [Compound 1, tert-butyl 4-(4-{5-[(2-chlorophenyl)methoxy]pyridin-3-yl}-1H-pyrazol-1-yl)piperidine-1-carboxylate] | 74.7% | N | 
2 | CC(C)(C)OC(=O)N1CCC(n2cc(-c3cncc(OCc4ccccc4F)c3)cn2)CC1 [Compound 2, tert-butyl 4-(4-(5-((2-fluorobenzyl)oxy)pyridin-3-yl)-1H-pyrazol-1-yl)piperidine-1-carboxylate] | 70.6% | N | 
3 | Cc1ccccc1COc1cncc(-c2cnn(C3CCN(C(=O)OC(C)(C)C)CC3)c2)c1 [Compound 3, tert-butyl 4-(4-(5-((2-methylbenzyl)oxy)pyridin-3-yl)-1H-pyrazol-1-yl)piperidine-1-carboxylate] | 60.8% | N | 77 µM
4 | CC(C)(C)OC(=O)N1CCC(n2cc(-c3cncc(OCc4ccccc4)c3)cn2)CC1 [Compound 4, tert-butyl 4-(4-(5-(benzyloxy)pyridin-3-yl)-1H-pyrazol-1-yl)piperidine-1-carboxylate] | 69.2% | N | > 80 µM
5 | CC(C)(C)OC(=O)N1CCC(n2cc(-c3cncc(OCc4c(Cl)cccc4Cl)c3)cn2)CC1 [Compound 5, tert-butyl 4-(4-(5-((2,6-dichlorobenzyl)oxy)pyridin-3-yl)-1H-pyrazol-1-yl)piperidine-1-carboxylate] |  | N | 
6 | CC(C)(C)OC(=O)N1CCC(n2cc(-c3cncc(OCc4ccc(Br)cc4)c3)cn2)CC1 [Compound 7, tert-butyl 4-(4-(5-((4-bromobenzyl)oxy)pyridin-3-yl)-1H-pyrazol-1-yl)piperidine-1-carboxylate] | 66.3% | Y* | 
7 | Cl.Clc1ccccc1COc1cncc(-c2cnn(C3CCNCC3)c2)c1 [Compound 9, 3-((2-chlorobenzyl)oxy)-5-(1-(piperidin-4-yl)-1H-pyrazol-4-yl)pyridine hydrochloride] | 16.0% | Y | 55 µM
8 | Cl.Clc1ccc(COc2cncc(-c3cnn(C4CCNCC4)c3)c2)c(Cl)c1 [Compound 10, 3-((2,4-dichlorobenzyl)oxy)-5-(1-(piperidin-4-yl)-1H-pyrazol-4-yl)pyridine hydrochloride] | 10.2% | Y | 53.8 µM

More lines, now with the values ahead:

Row | CETSA Min Inhibition (%) [1] | CETSA SP [2] | AC50 [1] | Compound
9 | 66.7% | N |  | CC(C)(C)CCN1CCC(n2cc(-c3cncc(OCc4ccccc4Cl)c3)cn2)CC1 [Compound 15, 3-((2-chlorobenzyl)oxy)-5-(1-(1-(3,3-dimethylbutyl)piperidin-4-yl)-1H-pyrazol-4-yl)pyridine]
10 | 64.5% | N | 79.6 µM | CC(C)(C)CC(=O)N1CCC(n2cc(-c3cncc(OCc4ccccc4Cl)c3)cn2)CC1 [Compound 16, 1-(4-(4-(5-((2-chlorobenzyl)oxy)pyridin-3-yl)-1H-pyrazol-1-yl)piperidin-1-yl)-3,3-dimethylbutan-1-one]
11 | 24.9% | Y | 54.7 µM | C[C@H](Oc1cncc(-c2cnn(C3CCNCC3)c2)c1)c1ccccc1Cl [Compound 21, (S)-3-(1-(2-chlorophenyl)ethoxy)-5-(1-(piperidin-4-yl)-1H-pyrazol-4-yl)pyridine]
12 | 24.6% | Y | 43.4 µM | C[C@@H](Oc1cncc(-c2cnn(C3CCNCC3)c2)c1)c1ccccc1Cl [Compound 22, (R)-3-(1-(2-chlorophenyl)ethoxy)-5-(1-(piperidin-4-yl)-1H-pyrazol-4-yl)pyridine]
13 | 8.15% | Y | 50.6 µM | C[C@@H](Oc1cncc(-c2cnn(C3CCNCC3)c2)c1)c1ccc(Cl)cc1 [Compound 23, (R)-3-(1-(4-chlorophenyl)ethoxy)-5-(1-(piperidin-4-yl)-1H-pyrazol-4-yl)pyridine]
14 | 24.9% | Y | 83.6 µM | Cc1ccccc1COc1cncc(-c2cnn(C3CCNCC3)c2)c1 [Compound 25, 3-[(2-Methylphenyl)methoxy]-5-[1-(piperidin-4-yl)-1H-pyrazol-4-yl]pyridine]
15 | 14.6% | Y | 87.4 µM | Clc1ccccc1COc1cncc(-c2ccn(C3CCNCC3)n2)c1 [Compound 26, 3-((2-chlorobenzyl)oxy)-5-(1-(piperidin-4-yl)-1H-pyrazol-3-yl)pyridine]
16 | 10.1% | Y | 57.1 µM | Clc1ccccc1COc1cncc(-n2ccc(C3CCNCC3)n2)c1 [Compound 27, 3-((2-chlorobenzyl)oxy)-5-(3-(piperidin-4-yl)-1H-pyrazol-1-yl)pyridine]
17 | 5.98% | Y | 55.5 µM | Clc1ccccc1COc1cncc(-n2cc(C3CCNCC3)cn2)c1 [Compound 28, 3-((2-chlorobenzyl)oxy)-5-(4-(piperidin-4-yl)-1H-pyrazol-1-yl)pyridine]
18 | 28.4% | N | 55 µM | Clc1ccccc1COc1cccc(-c2cnn(C3CCNCC3)c2)c1 [Compound 29, 4-(4-(3-((2-chlorobenzyl)oxy)phenyl)-1H-pyrazol-1-yl)piperidine]
